One test deals with p38 alpha (Homo sapiens, UniProt Q16539). Nature of the test: Evaluation of inhibitory ability of p38a mitogen-activated protein kinase (MAPK). To be noted: Serine/Threonine 15 peptide, 1 hour at room temperature, read at 445 nm and 520 nm. Type of test: biochemical. Here is the method: To identify the ability to inhibit p38 MAPK, compounds 1 to 15 were diluted to identify the inhibitory effect according to concentration. Briefly, the compounds were diluted at concentrations of […], respectively, and then a peptide/kinase mixture (final 7.07-28.3 ng p38 alpha, 2 μM Serine/Threonine 15, 50 mM HEPES pH 7.0, 0.01% NaN3) and ATP solution were added. After carrying out a reaction at room temperature for 1 hour, a development reagent was added, and a reaction was performed again at room temperature for 1 hour.

The target of another test is T1, p-p38 MAPK (Mus musculus, UniProt P47811).
T1 construct: endogenous in cells; host or cells: Raw264.7
The experiment in a line: Evaluation of p38 MAPK protein inhibitory ability in cells (p-p38 immunoblot). Type of test: cell-based. To be noted: 10 μM compound, 24 hours; for inhibition at 10 µM: RAW264.7, Raw264.7 cells; for p-p38 inhibition %: Raw264.7 cells, 10 µM. Here is the method: To identify inhibition of p-p38 MAPK, inhibition of p38 MAPK was identified after each compound was treated to Raw264.7 cells obtained by transforming macrophages into cancerous cells that cause inflammation according to p-p38 MAPK activity. Briefly, Raw264.7 cells were cultured in Dulbecco's modified Eagle Medium supplemented with 10% fetal bovine serum and penicillin/streptomycin (100 U/ml). Raw 264.7 cells were treated with 10 μM of compounds 1 to 15 according to the present disclosure in a petri dish respectively, followed by culture in a CO2 incubator for 24 hours. The effect of each compound on inhibition of p-p38 MAPK in cells was identified through protein immunoblot.
After completion of cell culture under the experimental conditions, washing was performed with cold phosphate buffered saline (PBS). The cells were then collected and centrifuged at 1200 rpm for 3 minutes. The precipitate was dissolved in cells with 2× sample buffer (1M Tris-HCl pH 6.8, 50% glycerol, 10% SDS, 2-mercaptoethanol, 1% bromophenol blue) and boiled at 100° C. for 10 minutes. The prepared protein samples were subjected to sodium dodecyl sulfate poly acrylamide gel electrophoresis and then transferred to PVDF membrane (Millipore). Blocking was performed in a 5% bovine serum albumin (BSA, RMbio) solution for a specific coupling reaction between the protein on the PVDF membrane and antibody. The BSA solution was then discarded, and the membrane was washed with PBS-T (0.5% tween 20 in PBS). The coupling reaction between the protein on the membrane and antibody was carried out overnight at 4° C., followed by washing again with PBS-T. Finally, a secondary antibody (Cell signaling Technology) conjugated with horseradish peroxidase (HRP) was diluted in PBS-T, and a reaction was carried out at room temperature for 2 hours. Luminata Forte HRP substrate (Millipore) was used to determine the protein amount on the membrane.

For another test, the system named is Raw264.7 cells. Nature of the test: Evaluation of nitric oxide inhibitory ability according to cellular inflammatory response (Griess reagent). Type of test: cell-based. The note with it: 10 μM compound, 550 nm; for inhibition at 10 µM: Mus musculus, RAW264.7, 24 h, read-out: NO inhibition (%); for NO inhibition (%): 24 hours, 10 µM. How it is done: In order to identify an inflammatory inhibitory effect upon inhibition of p-p38 MAPK, each compound was treated to Raw264.7 cells obtained by transforming macrophages into cancerous cells involved in the inflammatory response, so as to identify inhibition of inflammation due to inhibition of p38 MAPK. Briefly, Raw264.7 cells were cultured in Dulbecco's Modified Eagle Medium supplemented with 10% fetal bovine serum and penicillin/streptomycin (100 U/ml). Raw 264.7 cells were treated with 10 μM of compounds 1 to 15 according to the present disclosure in a petri dish respectively, followed by culture in a CO2 incubator for 24 hours.
After completion of cell culture under experimental conditions, the supernatant was obtained and centrifuged at 1200 rpm for 3 minutes. The centrifuged supernatant was mixed with Griess reagent (1% sulfanilamide, 0.1% N-(1-naphthyl)ethylenediamine dihydrochloride, 5% phosphoric acid) at 1:1 and then a reaction was performed for 10 minutes under shaded condition. The concentration of nitric oxide was determined at a wavelength of 550 nm.

Usually IC50 stands for the concentration that inhibits the measured activity by half. Higher therefore signals a need for much substance. Usually inhibition stands for how much of the control response was suppressed.

T1 sequence (P47811 whole entry): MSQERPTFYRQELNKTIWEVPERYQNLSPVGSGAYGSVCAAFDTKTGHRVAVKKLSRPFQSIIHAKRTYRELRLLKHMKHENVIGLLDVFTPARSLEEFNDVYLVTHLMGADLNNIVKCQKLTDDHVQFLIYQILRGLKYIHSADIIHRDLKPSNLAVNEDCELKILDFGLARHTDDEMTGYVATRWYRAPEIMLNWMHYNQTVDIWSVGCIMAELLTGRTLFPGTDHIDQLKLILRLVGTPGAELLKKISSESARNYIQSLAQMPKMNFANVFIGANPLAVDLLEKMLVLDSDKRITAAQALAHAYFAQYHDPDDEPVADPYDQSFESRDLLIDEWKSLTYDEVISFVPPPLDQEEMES
Sequence of p38 alpha (Q16539 whole entry): as the sequence (P47811 whole entry) above, with H48L, A263T counted along it

`Cc1ccc(C(=O)NC2CC2)cc1-c1ccc(C(=O)C2CC2)cc1` [Compound 4, 4′-(cyclopropanecarbonyl)-N-cyclopropyl-6-methyl-[1,1′-biphenyl]-3-carboxamide] had an IC50 against p38 alpha of 39.2 nM. Further, the values for the inhibition at 10 µM against p-p38 MAPK and in the test with Raw264.7 cells were 20.9% and 26%, respectively.

Molecule `Cc1ccc(C(=O)NC2CC2)cc1-c1ccc(C(=O)C2CCNC2)cc1` (stereo not drawn) [Compound 14, N-cyclopropyl-6-methyl-4′-(pyrrolidine-3-carbonyl)-[1,1′-biphenyl]-3-carboxamide] yielded an IC50 on p38 alpha of 126 nM. The inhibition at 10 µM on p-p38 MAPK was determined as 88.6%.

At p38 alpha, `Cc1ccc(C(=O)NC2CC2)cc1-c1ccc(C(=O)C2CCCCCC2)cc1` [Compound 8, 4′-(cycloheptanecarbonyl)-N-cyclopropyl-6-methyl-[1,1′-biphenyl]-3-carboxamide] came in with an IC50 of 46.6 nM. The inhibition at 10 µM at p-p38 MAPK came to 83%; in the test with Raw264.7 cells, 43.6%.

On p38 alpha, `Cc1ccc(C(=O)NC2CC2)cc1-c1ccc(C(=O)C(C)(C)O)cc1` [Compound 1, N-cyclopropyl-4′-(2-hydroxy-2-methylpropanoyl)-6-methyl-[1,1′-biphenyl]-3-carboxamide] registered an IC50 of 71.8 nM.

Molecule `Cc1ccc(C(=O)NC2CC2)cc1-c1ccc(C(=O)C2CCC(OCCO)C2)cc1` (stereo not drawn) [11 (syn isomer), N-cyclopropyl-4′-(3-(2-hydroxyethoxy)cyclopentanecarbonyl)-6-methyl-[1,1′-biphenyl]-3-carboxamide] had an IC50 at p38 alpha of 27.8 nM. In addition, the p-p38 inhibition % at p-p38 MAPK is on record as 41.9%. Further, in the test with Raw264.7 cells, the “NO inhibition (%)” value was 30.6%.

`COCCCC(C)C(=O)c1ccc(-c2cc(C(=O)NC3CC3)ccc2C)cc1` (stereo not drawn) [Compound 3, N-cyclopropyl-4′-(5-methoxy-2-methylpentanoyl)-6-methyl-[1,1′-biphenyl]-3-carboxamide] had an IC50 against p38 alpha of 50.7 nM.

On to `COCCN1CCC(C(=O)c2ccc(-c3cc(C(=O)NC4CC4)ccc3C)cc2)C1` (stereo not drawn) [Compound 15, N-cyclopropyl-4′-(1-(2-methoxyethyl)pyrrolidine-3-carbonyl)-6-methyl-[1,1′-biphenyl]-3-carboxamide], for which the IC50 at p38 alpha was found to be 158 nM. This molecule gave an inhibition at 10 µM against p-p38 MAPK of 79.2%.

In the case of `Cc1ccc(C(=O)NC2CC2)cc1-c1ccc(C(=O)C2CCC(OCCO)C2)cc1` (stereo not drawn) [11 (anti isomer), N-cyclopropyl-4′-(3-(2-hydroxyethoxy)cyclopentanecarbonyl)-6-methyl-[1,1′-biphenyl]-3-carboxamide], the IC50 against p38 alpha turned out to be 58.4 nM. The molecule further gave a p-p38 inhibition % at p-p38 MAPK of 64.1%. In the test with Raw264.7 cells, the “NO inhibition (%)” value came to 11.0%.

`Cc1ccc(C(=O)NC2CC2)cc1-c1ccc(C(=O)C(C)O)cc1` (stereo not drawn) [Compound 13, N-cyclopropyl-4′-(2-hydroxypropanoyl)-6-methyl-[1,1′-biphenyl]-3-carboxamide] yielded an IC50 against p38 alpha of 50.8 nM.

`Cc1ccc(C(=O)NC2CC2)cc1-c1ccc(C(=O)C2CC=CC2)cc1` [Compound 9, 4′-(cyclopent-3-enecarbonyl)-N-cyclopropyl-6-methyl-[1,1′-biphenyl]-3-carboxamide] came in with an IC50 on p38 alpha of 46.5 nM. Further, the inhibition at 10 µM at p-p38 MAPK stood at 81.7%; in the test with Raw264.7 cells it was 21.1%.

`COCCC(C)C(=O)c1ccc(-c2cc(C(=O)NC3CC3)ccc2C)cc1` (stereo not drawn) [Compound 2, N-cyclopropyl-4′-(4-methoxy-2-methylbutanoyl)-6-methyl-[1,1′-biphenyl]-3-carboxamide]: the IC50 at p38 alpha is 21.9 nM.

As to `Cc1ccc(C(=O)NC2CC2)cc1-c1ccc(C(=O)C2CCCC2)cc1` [Compound 6, 4′-(cyclopentanecarbonyl)-N-cyclopropyl-6-methyl-[1,1′-biphenyl]-3-carboxamide], the IC50 against p38 alpha was 128 nM. The inhibition at 10 µM at p-p38 MAPK was 76.2%; with Raw264.7 cells, 24%.

`COCCOC1CCC(C(=O)c2ccc(-c3cc(C(=O)NC4CC4)ccc3C)cc2)C1` (stereo not drawn) [Compound 12, N-cyclopropyl-4′-(3-(2-methoxyethoxy)cyclopentane-1-carbonyl)-6-methyl-[1,1′-biphenyl]-3-carboxamide]: the IC50 on p38 alpha amounted to 21.8 nM.

Molecule `Cc1ccc(C(=O)NC2CC2)cc1-c1ccc(C(=O)C2CCC2)cc1` [Compound 5, 4′-(cyclobutanecarbonyl)-N-cyclopropyl-6-methyl-[1,1′-biphenyl]-3-carboxamide] registered an IC50 on p38 alpha of 86.7 nM. Also, the values for the inhibition at 10 µM against p-p38 MAPK and with Raw264.7 cells were 80.4% and 11.9%, respectively.

The molecule `Cc1ccc(C(=O)NC2CC2)cc1-c1ccc(C(=O)C2CCCCC2)cc1` [Compound 7, 4′-(cyclohexanecarbonyl)-N-cyclopropyl-6-methyl-[1,1′-biphenyl]-3-carboxamide] gave a half-inhibitory concentration (IC50) against p38 alpha of 72.6 nM. For the same molecule, the inhibition at 10 µM came to 87.6% against p-p38 MAPK and 15.5% in the test on Raw264.7 cells.

`Cc1ccc(C(=O)NC2CC2)cc1-c1ccc(C(=O)C2CCC(O)C2)cc1` (stereo not drawn) [Compound 10, N-cyclopropyl-4′-(3-hydroxycyclopentanecarbonyl)-6-methyl-[1,1′-biphenyl]-3-carboxamide] returned an IC50 on p38 alpha of 22.5 nM. Further, the results for the inhibition at 10 µM against p-p38 MAPK and in the test on Raw264.7 cells were 44.7% and 11.1%, respectively.

These data come from patent US20240109839A1, “NOVEL COMPOUND EXHIBITING ANTI-INFLAMMATORY ACTIVITY AS P38 MAP KINASE INHIBITOR” (PRAZERTHERAPEUTICS INC., priority 2021, published 2024).
